The values below come from a melting point compilation (Tetko et al.; mined from patent text by program, amines drawn as free bases though some values may be those of a salt).

Bounds are passed on as bounds.

In the case of `Cc1nc(-c2ccc(N)c(C#N)c2)c[nH]1`, the melting point (in general, the temperature of the solid-liquid transition) lay within 89 to 91 °C.
`CCOC(=O)C1=C(N)N=C(OCC)C(C(=O)OCC)C1c1ccc(SC)cc1` (stereo unspecified) showed a melting point of 132 °C.
`COc1ccc2[nH]c(=O)c3cccn3c2n1` had a melting point of 250 °C.
`CCOC(=O)[C@@H]1OC(c2ccc(O)c(OCC)c2)O[C@H]1C(=O)OCC` registered a melting point of 78 to 80 °C.
Compound `CC(=O)NC[C@H]1CN(c2ccc(-c3noc(C#N)n3)c(F)c2)C(=O)O1` showed a melting point of 200 to 202 °C.
For `COc1cccc2cccc(S(=O)(=O)N(C)C)c12`, the melting point was 146 to 149 °C.
Consider `COc1ccc(C2(C#Cc3cc(N4CN=C(C)O4)cs3)CCC(=O)CC2)cc1OC1CCCC1`, for which the melting point lay in the range of 90 to 91 °C.
`COC(=O)c1ccc(OCCCOc2cc3c(cc2O)CCO3)cc1` displayed a melting point of 133 to 135 °C.
For the compound `CC(C)c1cc(-c2ccncc2)c(-c2ccc(F)cc2)n1CCC1CC(O)CC(=O)O1` (stereo unspecified), the melting point lay in the range of 174 to 176 °C.
For `CC(=O)OCCn1c(=O)sc2ccc(-c3nc4ccccn4c3C)cc21`, the melting point was 113 to 115 °C.
Regarding `CS(=O)c1cc(-c2ccc(Oc3ccccc3)cc2)nn1C(N)=O` (stereo unspecified), the melting point is 92 °C.
Compound `O=C(O)c1cn(-n2cnnc2)c2cc(F)c(F)cc2c1=O` displayed a melting point of 270 °C.
The same measure for `Cc1nc(N)c2nc(C)n(CCNC(=O)C(C)C)c2c1C`: 220 to 222 °C; for `COC(=O)CN1C(=O)c2ccc(F)cc2S1(=O)=O`: 86 °C; for `O=C1C=C(Oc2ccc(C(F)(F)F)cc2)C(O)O1` (stereo unspecified): 87 to 89 °C.
`CCCCCCCNC(=O)Nc1cccc(-c2ccc(C=C(OC)C(=O)O)cc2OCCCC)c1`: the melting point is 137 °C.
Take `COC(=O)c1ccc(-c2ccc(OC)c3c2CC(C)(C)O3)cc1`: the melting point was in the range of 116 to 122 °C.
In the case of `COc1cc2c(cc1OC)NC(=O)N(CCCN(C)CCCS(=O)(=O)c1ccccc1)CC2`, the melting point was in the range of 118 to 121 °C.
As for `C=C(F)C(=O)Oc1c(I)cc(C(F)(F)F)cc1I`, the melting point lay in the range of 93 to 95 °C.
In the case of `COc1cccc(Nc2nc(NC(=O)C(C)(C)C)nc3[nH]c4ccccc4c23)c1`, the melting point stood at 267 °C.
For `Cn1cc(C#N)c(Nc2ccc(Cl)cc2[N+](=O)[O-])n1`, the melting point was 205 °C.
The same measure for `COc1ccc(-n2nc(Sc3ccc(F)cc3)c(C)c(C#N)c2=O)cc1`: 150 to 152 °C; for `N#Cc1cc2nc(O)c(O)nc2cc1C(F)(F)F`: over 300 °C.
The same measure for `CCCC(=O)Nc1c(C(=O)c2cccc(Cl)c2)[nH]c2cc(Cl)ccc12`: 157 to 158 °C.
The compound `CCCNC(=O)Oc1ccc(C(O)(CC)c2ccc(F)cc2)cc1` (stereo unspecified) gave a melting point of 107 to 108 °C.
`Clc1ccc(-c2cc(C3CCN(CC4CC4)CC3)n[nH]2)cc1` displayed a melting point of 176 to 178 °C.
The compound `CCCn1c(=O)c2[nH]c(/C=C/c3ccccc3F)nc2n(CCC)c1=O` registered a melting point of 259 °C.
`CCCC(=O)c1cnc2c(OC)cccc2c1Nc1ccccc1OC` had a melting point of 159 to 161 °C.
The same measure for `C#CCOC(=O)C1=C(C)NC(C)=C(C(=O)OCC)C1c1cccc([N+](=O)[O-])c1` (stereo unspecified): 132 to 133 °C; for `CS(=O)(=O)Nc1cc2occ(N)c(=O)c2cc1Oc1ccccc1`: 162 to 163 °C.
Compound `CON=C(C)c1cccc(S(N)(=O)=O)c1` gave a melting point of 165 to 166 °C.
On to `Cc1ccc(Oc2ccc([N+](=O)[O-])cc2-c2ncon2)c(O)c1`, for which the melting point was 159 to 160 °C.
Turning to `ClCC1COC(Cc2ccc(Cl)cc2)(c2ccccc2)O1` (stereo unspecified), the melting point came out at 65 °C.
`CC(C)C(=O)N1C(=O)C2C=CC1C2` (stereo unspecified) showed a melting point of 41 to 42 °C.
Compound `O=[N+]([O-])c1ccc(N2CCN(CCCN3c4cccc5cccc(c45)S3(=O)=O)CC2)cc1` yielded a melting point of 186 °C.
The same measure for `NC1N=C(Cl)C=C(Cl)N1c1c([N+](=O)[O-])cc([N+](=O)[O-])cc1C(F)(F)F` (stereo unspecified): 170 to 173 °C.
